“And” between values parts separate entries of the source, which are not always exact repeats. Equal entries are not always repeated. Inconclusive results and toxic doses are left out. Rule as the data show it: active = T/C of 150% or more; inactive = T/C below 125%.
Test system: L1210 leukemia ip in BDF1 mice, survival T/C
Test: NCI In Vivo Anticancer Drug Screen. Data for tumor model L1210 Leukemia (intraperitoneal) in B6D2F1 (BDF1) mice
Conditions: higher = longer survival
Procedure, shortened: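 Transplanted-tumor mice were given test agent; controls received vehicle only. Survival readings from the two groups were divided (treated over control).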

[1] = endpoint: mean survival time, dose: 12.5 mg/kg/injection, schedule: Q01DX009 (ip), vehicle: saline with Tween-80
[2] = endpoint: mean survival time, dose: 25.0 mg/kg/injection, schedule: Q01DX009 (ip), vehicle: saline with Tween-80
[3] = endpoint: mean survival time, dose: 100.0 mg/kg/injection, schedule: Q04DX003 (ip), vehicle: saline with Tween-80
[4] = endpoint: mean survival time, dose: 200.0 mg/kg/injection, schedule: Q04DX003 (ip), vehicle: saline with Tween-80
[5] = endpoint: mean survival time, dose: 400.0 mg/kg/injection, schedule: Q04DX003 (ip), vehicle: saline with Tween-80
[6] = endpoint: mean survival time, dose: 100.0 mg/kg/injection, schedule: Q01DX001 (ip), vehicle: saline with Tween-80

Measured: T/C

CS(=O)(=O)C(Cl)(Cl)S(C)(=O)=O
inactive: endpoint: mean survival time, dose: 6.25 mg/kg/injection, schedule: Q01DX009 (ip), vehicle: saline with Tween-80 116 % of control | [1] 102 % of control | [2] 104 % of control

COc1ccc(/C=C/c2cc[n+](C)cc2)cc1OC
inactive: endpoint: mean survival time, dose: 75.0 mg/kg/injection, schedule: Q01DX001 (ip), vehicle: carboxymethylcellulose (CMC) 111 % of control | endpoint: mean survival time, dose: 150.0 mg/kg/injection, schedule: Q01DX001 (ip), vehicle: carboxymethylcellulose (CMC) 109 % of control | endpoint: mean survival time, dose: 300.0 mg/kg/injection, schedule: Q01DX001 (ip), vehicle: carboxymethylcellulose (CMC) 103 % of control

CC(=O)NC(CCc1ccc(Cl)c(Cl)c1)c1cccc(O)c(=O)c1 (centres undefined)
inactive: endpoint: median survival time, dose: 50.0 mg/kg/injection, schedule: Q01DX009 (ip), vehicle: Klucel (hydroxypropylcellulose) (HPC) 118 % of control | endpoint: median survival time, dose: 100.0 mg/kg/injection, schedule: Q01DX009 (ip), vehicle: Klucel (hydroxypropylcellulose) (HPC) 118 % of control

CCOC(=O)NNP(=O)(NNC(=O)OCC)c1ccccc1
inactive: endpoint: mean survival time, dose: 100.0 mg/kg/injection, schedule: Q01DX001 (ip), vehicle: carboxymethylcellulose (CMC) 101 % of control | endpoint: mean survival time, dose: 100.0 mg/kg/injection, schedule: Q01DX009 (ip), vehicle: carboxymethylcellulose (CMC) 94 % of control | endpoint: mean survival time, dose: 100.0 mg/kg/injection, schedule: Q04DX002 (ip), vehicle: carboxymethylcellulose (CMC) 98 % of control | endpoint: mean survival time, dose: 100.0 mg/kg/injection, schedule: Q04DX003 (ip), vehicle: carboxymethylcellulose (CMC) 98 % of control | endpoint: mean survival time, dose: 200.0 mg/kg/injection, schedule: Q01DX001 (ip), vehicle: carboxymethylcellulose (CMC) 104 % of control | endpoint: mean survival time, dose: 200.0 mg/kg/injection, schedule: Q01DX009 (ip), vehicle: carboxymethylcellulose (CMC) 94 % of control and 98 % of control | endpoint: mean survival time, dose: 200.0 mg/kg/injection, schedule: Q04DX002 (ip), vehicle: carboxymethylcellulose (CMC) 91 % of control | endpoint: mean survival time, dose: 200.0 mg/kg/injection, schedule: Q04DX003 (ip), vehicle: carboxymethylcellulose (CMC) 102 % of control | endpoint: mean survival time, dose: 400.0 mg/kg/injection, schedule: Q01DX001 (ip), vehicle: carboxymethylcellulose (CMC) 92 % of control | endpoint: mean survival time, dose: 400.0 mg/kg/injection, schedule: Q01DX009 (ip), vehicle: carboxymethylcellulose (CMC) 108 % of control and 109 % of control | endpoint: mean survival time, dose: 400.0 mg/kg/injection, schedule: Q04DX002 (ip), vehicle: carboxymethylcellulose (CMC) 94 % of control | endpoint: mean survival time, dose: 400.0 mg/kg/injection, schedule: Q04DX003 (ip), vehicle: carboxymethylcellulose (CMC) 101 % of control

CCNC(C)(C)C(O)c1ccc(Cl)s1 (centres undefined)
inactive: endpoint: mean survival time, dose: 100.0 mg/kg/injection, schedule: Q01DX009 (ip), vehicle: saline with Tween-80 98 % of control | [3] 100 % of control | endpoint: mean survival time, dose: 200.0 mg/kg/injection, schedule: Q01DX009 (ip), vehicle: saline with Tween-80 98 % of control | [4] 102 % of control | [5] 103 % of control

O=C(COc1ccc(Cl)c(Cl)c1)Nc1ccc[n+](CC(=O)c2cccc(S(=O)(=O)F)c2)c1
inactive: endpoint: mean survival time, dose: 25.0 mg/kg/injection, schedule: Q01DX001 (ip), vehicle: saline with Tween-80 96 % of control | endpoint: mean survival time, dose: 50.0 mg/kg/injection, schedule: Q01DX001 (ip), vehicle: saline with Tween-80 98 % of control | [6] 107 % of control

Cc1cc2ccccc2c(N=Cc2cc(Br)cc(Br)c2O)c1C#N
inactive: [3] 92 % of control and 98 % of control and 90 % of control | endpoint: mean survival time, dose: 200.0 mg/kg/injection, schedule: Q01DX003 (ip), vehicle: saline with Tween-80 87 % of control | [4] 93 % of control and 98 % of control and 90 % of control | [5] 97 % of control and 101 % of control and 104 % of control

CC1=CC(=O)c2c(O)ccc(O)c2C1=O
inactive: endpoint: mean survival time, dose: 2.5 mg/kg/injection, schedule: Q04DX003 (ip), vehicle: other 95 % of control | endpoint: mean survival time, dose: 5.0 mg/kg/injection, schedule: Q01DX001 (ip), vehicle: saline 101 % of control | endpoint: mean survival time, dose: 5.0 mg/kg/injection, schedule: Q04DX003 (ip), vehicle: other 103 % of control | endpoint: mean survival time, dose: 10.0 mg/kg/injection, schedule: Q01DX001 (ip), vehicle: saline 97 % of control | endpoint: mean survival time, dose: 10.0 mg/kg/injection, schedule: Q04DX003 (ip), vehicle: other 94 % of control | endpoint: mean survival time, dose: 20.0 mg/kg/injection, schedule: Q01DX001 (ip), vehicle: saline 100 % of control | endpoint: mean survival time, dose: 40.0 mg/kg/injection, schedule: Q01DX001 (ip), vehicle: saline 102 % of control

CC1=C(c2ccccc2)C(c2ccccc2)=C(C)C1=NNc1ccc([N+](=O)[O-])cc1[N+](=O)[O-]
inactive: [6] 86 % of control | endpoint: mean survival time, dose: 200.0 mg/kg/injection, schedule: Q01DX001 (ip), vehicle: saline with Tween-80 86 % of control | endpoint: mean survival time, dose: 400.0 mg/kg/injection, schedule: Q01DX001 (ip), vehicle: saline with Tween-80 86 % of control

CCOC(=O)/C=C/c1ccc([N+](=O)[O-])cc1
inactive: endpoint: mean survival time, dose: 100.0 mg/kg/injection, schedule: Q04DX003 (ip), vehicle: Klucel (hydroxypropylcellulose) (HPC) 95 % of control | endpoint: mean survival time, dose: 200.0 mg/kg/injection, schedule: Q04DX003 (ip), vehicle: Klucel (hydroxypropylcellulose) (HPC) 102 % of control | endpoint: mean survival time, dose: 400.0 mg/kg/injection, schedule: Q04DX003 (ip), vehicle: Klucel (hydroxypropylcellulose) (HPC) 98 % of control

Nc1ccc(N=Nc2ccc(S(=O)(=O)Nc3nccs3)cc2)c(N)n1
inactive: endpoint: mean survival time, dose: 100.0 mg/kg/injection, schedule: Q01DX001 (ip), vehicle: saline 102 % of control | endpoint: mean survival time, dose: 200.0 mg/kg/injection, schedule: Q01DX001 (ip), vehicle: saline 96 % of control | endpoint: mean survival time, dose: 400.0 mg/kg/injection, schedule: Q01DX001 (ip), vehicle: saline 88 % of control

Oc1ccccc1O.[O-]c1ccccc1[O-].[O-]c1ccccc1[O-].[O]=[V+2]
inactive: endpoint: mean survival time, dose: 4.0 mg/kg/injection, schedule: Q01DX015 (ip), vehicle: saline 100 % of control | endpoint: mean survival time, dose: 8.0 mg/kg/injection, schedule: Q01DX015 (ip), vehicle: saline 94 % of control | endpoint: mean survival time, dose: 12.5 mg/kg/injection, schedule: Q04DX003 (ip), vehicle: saline 111 % of control | endpoint: mean survival time, dose: 16.0 mg/kg/injection, schedule: Q01DX015 (ip), vehicle: saline 96 % of control | endpoint: mean survival time, dose: 18.75 mg/kg/injection, schedule: Q01DX009 (ip), vehicle: saline 90 % of control | endpoint: mean survival time, dose: 25.0 mg/kg/injection, schedule: Q04DX003 (ip), vehicle: saline 102 % of control | endpoint: mean survival time, dose: 32.0 mg/kg/injection, schedule: Q01DX015 (ip), vehicle: saline 102 % of control | endpoint: mean survival time, dose: 37.5 mg/kg/injection, schedule: Q01DX009 (ip), vehicle: saline 101 % of control | endpoint: mean survival time, dose: 50.0 mg/kg/injection, schedule: Q04DX003 (ip), vehicle: saline 100 % of control | endpoint: mean survival time, dose: 75.0 mg/kg/injection, schedule: Q04DX003 (ip), vehicle: saline 97 % of control

FC(F)(F)c1cccc(-c2nc3nc(Cl)c(Cl)nc3[nH]2)c1
inactive: [1] 93 % of control | [2] 98 % of control | endpoint: mean survival time, dose: 50.0 mg/kg/injection, schedule: Q01DX009 (ip), vehicle: saline with Tween-80 90 % of control

Cc1ccc(S(=O)(=O)NN=C2CCS(=O)CC2)cc1 (centres undefined)
inactive: endpoint: mean survival time, dose: 100.0 mg/kg/injection, schedule: Q01DX009 (ip), vehicle: Klucel (hydroxypropylcellulose) (HPC) 90 % of control | endpoint: mean survival time, dose: 200.0 mg/kg/injection, schedule: Q01DX009 (ip), vehicle: Klucel (hydroxypropylcellulose) (HPC) 97 % of control | endpoint: mean survival time, dose: 400.0 mg/kg/injection, schedule: Q01DX009 (ip), vehicle: Klucel (hydroxypropylcellulose) (HPC) 94 % of control

CCC1C(=O)N(C)c2ccccc21 (centres undefined)
inactive: endpoint: mean survival time, dose: 100.0 mg/kg/injection, schedule: Q01DX001 (ip), vehicle: acetone 100 % of control | endpoint: mean survival time, dose: 200.0 mg/kg/injection, schedule: Q01DX001 (ip), vehicle: acetone 96 % of control | endpoint: mean survival time, dose: 400.0 mg/kg/injection, schedule: Q01DX001 (ip), vehicle: acetone 97 % of control

C1[CH2][Hg][CH2]CO1
inactive: endpoint: mean survival time, dose: 100.0 mg/kg/injection, schedule: Q04DX002 (ip), vehicle: saline 100 % of control | endpoint: mean survival time, dose: 200.0 mg/kg/injection, schedule: Q04DX002 (ip), vehicle: saline 100 % of control

— PubChem BioAssay AID248 (DTP/NCI, 2004)
